pEC50: −log10 of the molar value. Like-named read-outs stand apart in the source and are kept apart here.
Key:
[1] = system: wild type (WT) K562 cells; test: CI-M6PR mediated uptake of Alexa488-IgE in wild type K562 cells; format: cell-based; settings: omalizumab conjugates, average loading DAR9, FIG. 14
Procedure: The uptake of exemplary omalizumab (anti-IgE) antibody conjugates of compound 520 (I-7) (average loading DAR9) versus exemplary compound 537 (I-66) (average loading DAR9) was assessed in wild type (WT) K562 cells and CI-M6PR knockout (KO) cells using a similar method of that described above.

Hep G2 cells = test: Conjugate-mediated uptake of IgG2a into Hep G2 cells; format: cell-based, human; settings: one hour incubation, FIG. 13; 816 DAR6, 817 DAR4, 520 (I-7) DAR4
Procedure: The anti-IgG2a conjugates were bound to IgG2a-Alexa488, as follows: equal molar ratios of anti-IgG2a and IgG2a-Alexa488 were added in tissue culture media for 30 minutes at room temperature. The resulting anti-IgG2a:IgG2a antibody-Alexa488 compositions were added to Jurkat cells (100 k cells/50 ul per well, n=2), and Alexa488 fluorescence levels were measured (via Alexa488 measurement) at 1 hour and 24 hours by flow cytometry. As the fluorescently labelled target (IgG2a antibody) accumulates in cells, the fluorescence presents a way to measure total intracellular uptake by cells over time.
The uptake of antibody conjugates of exemplary M6PR or ASGPR binding compounds was assessed in Hep G2 cells, using a method similar to that described in Example above. […] Compounds 816 and 817 were prepared according to methods described in International Application No. PCT/US2021/012846, filed Jan. 8, 2021.

CI-M6PR [2] = biological target: T1, CI-M6PR (Homo sapiens, UniProt P11717); test: Human CI-M6PR binding assay (ELISA); parameters: purchased R&D 6418-GR-050; settings: for EC50: read-out: EC50 (nM) in M6PR binding assay
Procedure: Nunc black solid bottom MaxiSorp plates were allowed to incubate overnight at 4° C. coated with 1 μg/mL of recombinant human CI-M6PR protein (R&D, 6418-GR-050) in 50 μL PBS. The next day, coating was decanted and plates were washed 3× with PBS. Wells were blocked with 350 μL of 3% BSA-PBS for 1 hour at room temperature. […] 50 μL of diluted conjugates were added to the plate and allowed to incubate at room temperature for 2 hours. After incubation, solutions in plate were decanted and washed with 350 μL of 0.05% PBS-Tween20 three times, drying the plate each wash on a clean paper towel. 50 μL of peroxidase AffiniPure Mouse Anti-Human IgG (Jackson Immuno, 209-035-088) diluted in 3% BSA-PBS to […] was added to the plate and allowed to incubate for 1 hour at room temperature in the dark. After incubation, solutions in plate were decanted and washed with 350 μL of 0.05% PBS-Tween20 3 times, drying the plate each wash on a clean paper towel. […] 50 μL of QuantaBlu solution was added to wells and allowed to incubate for 5-10 minutes at room temperature. After incubation, plates were read on a Perkin Elmer EnVision using photometric 340 and Umbelliferone 460 filter sets for excitation and emission, respectively. Data analysis and non-linear curve-fitting was performed using GraphPad Prism.
Target sequence in this assay (P11717 41-1365 limits assumed): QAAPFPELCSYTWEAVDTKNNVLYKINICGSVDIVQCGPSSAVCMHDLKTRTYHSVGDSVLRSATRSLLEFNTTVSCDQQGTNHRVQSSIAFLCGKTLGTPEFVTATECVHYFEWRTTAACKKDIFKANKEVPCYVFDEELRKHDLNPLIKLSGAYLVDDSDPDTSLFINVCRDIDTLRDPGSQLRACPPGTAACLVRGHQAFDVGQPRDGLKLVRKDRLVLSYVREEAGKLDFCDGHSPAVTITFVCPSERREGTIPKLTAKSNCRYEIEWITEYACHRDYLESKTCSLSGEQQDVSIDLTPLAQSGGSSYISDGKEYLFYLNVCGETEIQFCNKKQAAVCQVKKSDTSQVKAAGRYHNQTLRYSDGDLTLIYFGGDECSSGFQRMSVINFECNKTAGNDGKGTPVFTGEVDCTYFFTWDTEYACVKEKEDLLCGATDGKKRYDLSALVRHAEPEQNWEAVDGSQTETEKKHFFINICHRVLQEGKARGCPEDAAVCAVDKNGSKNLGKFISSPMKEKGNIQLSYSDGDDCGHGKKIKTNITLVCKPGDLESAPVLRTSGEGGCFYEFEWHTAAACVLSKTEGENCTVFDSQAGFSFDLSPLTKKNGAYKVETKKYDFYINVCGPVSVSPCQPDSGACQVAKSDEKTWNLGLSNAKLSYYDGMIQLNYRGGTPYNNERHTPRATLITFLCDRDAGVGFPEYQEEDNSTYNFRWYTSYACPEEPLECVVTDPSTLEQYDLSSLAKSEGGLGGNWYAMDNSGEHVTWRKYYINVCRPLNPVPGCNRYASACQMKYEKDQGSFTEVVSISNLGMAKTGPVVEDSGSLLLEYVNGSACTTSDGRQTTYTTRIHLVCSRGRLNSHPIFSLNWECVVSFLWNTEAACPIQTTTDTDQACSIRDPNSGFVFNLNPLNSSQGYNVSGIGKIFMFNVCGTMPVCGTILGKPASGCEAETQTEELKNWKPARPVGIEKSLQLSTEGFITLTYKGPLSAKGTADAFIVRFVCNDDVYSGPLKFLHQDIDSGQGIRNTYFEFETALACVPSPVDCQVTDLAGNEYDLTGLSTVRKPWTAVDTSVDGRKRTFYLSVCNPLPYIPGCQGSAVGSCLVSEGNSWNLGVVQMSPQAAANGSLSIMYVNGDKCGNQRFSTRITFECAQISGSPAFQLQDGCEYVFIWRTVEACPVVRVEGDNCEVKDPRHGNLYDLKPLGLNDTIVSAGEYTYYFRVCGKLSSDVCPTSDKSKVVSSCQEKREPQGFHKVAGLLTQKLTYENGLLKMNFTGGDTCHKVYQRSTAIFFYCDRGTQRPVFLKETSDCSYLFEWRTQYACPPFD

Jurkat cells = test: Uptake of IgE-Alexa488 target by omalizumab conjugates in Jurkat cells; format: cell-based
Procedure: The omalizumab conjugates of Example 142 were bound to IgE-Alexa488 (prepared according to Example 144), as follows: equal molar ratios of omalizumab (anti-IgE) conjugate and IgE-Alexa488 were added in tissue culture media for 30 minutes at room temperature. The resulting anti-IgE conjugate:IgE antibody-Alexa488 compositions were added to Jurkat cells (100 k cells/50 ul per well, n=2), and Alexa488 fluorescence levels in the cells were measured at 1 hour by flow cytometry. As the fluorescently labelled target (IgE antibody) accumulates in cells, the fluorescence presents a way to measure total intracellular uptake by cells over time.

CI-M6PR [3] = biological target: T1, CI-M6PR; test: CI-M6PR SPR binding assay; settings: omalizumab conjugates at DAR of about 4
Procedure: The CI-M6PR binding affinities of omalizumab (anti-IgE) conjugates of Table 19 were also assessed via SPR binding assay. […] At equivalent DAR (m) values, the koff rate of the omalizumab (anti-IgE) conjugates was 552>529>570.
Target sequence in this assay (P11717 41-2491): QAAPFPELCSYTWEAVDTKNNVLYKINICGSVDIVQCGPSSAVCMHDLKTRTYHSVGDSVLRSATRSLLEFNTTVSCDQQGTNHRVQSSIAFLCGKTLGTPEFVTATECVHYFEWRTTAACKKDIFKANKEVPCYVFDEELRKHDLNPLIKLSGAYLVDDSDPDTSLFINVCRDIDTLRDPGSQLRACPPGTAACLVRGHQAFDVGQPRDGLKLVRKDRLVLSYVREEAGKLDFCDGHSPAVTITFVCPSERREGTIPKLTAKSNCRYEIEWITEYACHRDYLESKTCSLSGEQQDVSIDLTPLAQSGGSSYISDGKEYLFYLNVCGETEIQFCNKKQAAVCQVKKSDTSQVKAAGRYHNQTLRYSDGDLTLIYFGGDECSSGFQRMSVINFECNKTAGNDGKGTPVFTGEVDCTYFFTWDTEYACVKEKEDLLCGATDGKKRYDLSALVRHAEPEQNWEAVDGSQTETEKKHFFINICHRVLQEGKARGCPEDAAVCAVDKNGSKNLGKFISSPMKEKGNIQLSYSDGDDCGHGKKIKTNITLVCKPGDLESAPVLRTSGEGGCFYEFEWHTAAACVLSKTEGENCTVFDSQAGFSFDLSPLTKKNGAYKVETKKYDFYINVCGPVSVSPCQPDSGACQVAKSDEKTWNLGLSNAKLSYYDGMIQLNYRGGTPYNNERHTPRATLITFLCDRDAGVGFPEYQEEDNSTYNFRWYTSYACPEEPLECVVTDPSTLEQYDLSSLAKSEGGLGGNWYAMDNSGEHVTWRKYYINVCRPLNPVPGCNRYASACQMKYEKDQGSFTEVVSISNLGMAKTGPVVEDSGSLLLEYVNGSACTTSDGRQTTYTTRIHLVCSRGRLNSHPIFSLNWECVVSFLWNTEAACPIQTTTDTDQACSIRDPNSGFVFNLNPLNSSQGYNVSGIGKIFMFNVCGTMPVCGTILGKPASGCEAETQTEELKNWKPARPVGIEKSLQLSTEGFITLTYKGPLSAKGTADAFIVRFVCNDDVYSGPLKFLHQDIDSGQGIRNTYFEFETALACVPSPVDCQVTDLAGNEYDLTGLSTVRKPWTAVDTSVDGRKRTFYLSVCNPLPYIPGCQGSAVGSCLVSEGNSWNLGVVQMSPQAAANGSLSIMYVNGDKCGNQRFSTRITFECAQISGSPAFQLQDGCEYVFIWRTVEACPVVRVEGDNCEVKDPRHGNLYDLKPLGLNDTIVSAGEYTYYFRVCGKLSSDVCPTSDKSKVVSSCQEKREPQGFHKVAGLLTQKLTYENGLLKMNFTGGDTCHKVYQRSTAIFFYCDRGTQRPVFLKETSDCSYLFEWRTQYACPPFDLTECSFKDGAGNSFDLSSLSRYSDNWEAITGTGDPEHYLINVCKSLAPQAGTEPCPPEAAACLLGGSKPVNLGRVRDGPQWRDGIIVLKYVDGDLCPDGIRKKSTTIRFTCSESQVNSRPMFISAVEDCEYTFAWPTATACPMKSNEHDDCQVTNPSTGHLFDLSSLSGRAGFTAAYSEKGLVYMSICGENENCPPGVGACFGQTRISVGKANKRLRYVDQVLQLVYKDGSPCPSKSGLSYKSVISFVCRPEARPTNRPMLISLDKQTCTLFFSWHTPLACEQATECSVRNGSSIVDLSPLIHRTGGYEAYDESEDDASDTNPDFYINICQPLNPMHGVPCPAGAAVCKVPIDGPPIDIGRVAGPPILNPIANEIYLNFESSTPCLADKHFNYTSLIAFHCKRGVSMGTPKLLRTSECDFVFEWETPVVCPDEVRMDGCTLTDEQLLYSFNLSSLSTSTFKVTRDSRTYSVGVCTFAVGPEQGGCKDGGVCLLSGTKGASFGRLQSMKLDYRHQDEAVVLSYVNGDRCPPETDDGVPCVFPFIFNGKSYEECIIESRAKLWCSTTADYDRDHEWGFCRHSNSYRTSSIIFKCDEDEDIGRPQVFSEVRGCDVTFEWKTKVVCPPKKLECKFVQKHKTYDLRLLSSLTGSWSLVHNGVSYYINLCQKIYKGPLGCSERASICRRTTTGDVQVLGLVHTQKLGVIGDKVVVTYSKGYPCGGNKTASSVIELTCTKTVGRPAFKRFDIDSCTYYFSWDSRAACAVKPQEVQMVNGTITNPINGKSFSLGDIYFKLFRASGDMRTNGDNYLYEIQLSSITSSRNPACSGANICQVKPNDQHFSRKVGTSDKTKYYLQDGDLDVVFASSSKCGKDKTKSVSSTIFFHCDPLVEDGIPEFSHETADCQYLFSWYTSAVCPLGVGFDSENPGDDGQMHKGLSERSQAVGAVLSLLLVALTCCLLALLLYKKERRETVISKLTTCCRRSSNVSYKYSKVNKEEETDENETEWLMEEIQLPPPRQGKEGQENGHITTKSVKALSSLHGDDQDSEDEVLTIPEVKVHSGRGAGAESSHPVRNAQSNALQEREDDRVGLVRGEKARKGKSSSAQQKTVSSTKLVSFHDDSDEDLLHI

Compound: O=C(CCOCCOCCOCCOCCn1cc(CCCCNC(=S)Nc2ccc(O[C@H]3O[C@H](CCP(=O)(O)O)[C@@H](O)[C@H](O)[C@@H]3O)cc2)nn1)Oc1c(F)c(F)c(F)c(F)c1F [520 (I-7)]
- cell uptake of Alexa488-IgE target, WT K562 versus CI-M6PR KO cells [1]: CI-M6PR dependent
- uptake into HepG2 cells (Hep G2 cells): comparable HepG2 cellular uptake
- pEC50 (CI-M6PR [2]; Table 16B, antibody conjugate, average loading DAR 4, read-out: EC50 in M6PR binding assay): 9.39
- pEC50 (CI-M6PR [2]; Table 16C, cetuximab (anti-EGFR) conjugate, average loading DAR 8, read-out: EC50 in M6PR binding assay): 9.39
- pEC50 (CI-M6PR [2]; Table 16D, conjugate, m average loading DAR 2, read-out: EC50 in M6PR binding assay for conjugates of compounds of varying multivalency): 8.43
- pEC50 (CI-M6PR [2]; Table 16D, conjugate, m average loading DAR 4, read-out: EC50 in M6PR binding assay for conjugates of compounds of varying multivalency): 9.52
- pEC50 (CI-M6PR [2]; Table 16D, conjugate, m average loading DAR 9, read-out: EC50 in M6PR binding assay for conjugates of compounds of varying multivalency): 9.64
- pEC50 (CI-M6PR [2]; Table 16E, conjugate, m average DAR 2, read-out: EC50 in M6PR binding assay for conjugates of monovalent compounds of varying linker length and loading): 8.43
- pEC50 (CI-M6PR [2]; Table 16E, conjugate, m average DAR 4, read-out: EC50 in M6PR binding assay for conjugates of monovalent compounds of varying linker length and loading): 9.52
- pEC50 (CI-M6PR [2]; Table 16E, conjugate, m average DAR 9, read-out: EC50 in M6PR binding assay for conjugates of monovalent compounds of varying linker length and loading): 9.64
- EC50 (CI-M6PR [2]; antibody conjugate, average loading DAR 2): 2.6 nM
- EC50 (CI-M6PR [2]; antibody conjugate, average loading DAR 4): 0.22 nM
- EC50 (CI-M6PR [2]; antibody conjugate, average loading DAR 9): 0.22 nM
- binding affinity to M6PR, rank among conjugates tested (FIGS. 7A-7F) (CI-M6PR [2]; matuzumab conjugates, I-7 at d8 (DAR 8), I-11 at d4 (DAR 4)): highest

Compound: O=C(NCCCCc1cn(CCOCCOCCOCCOCCC(=O)Oc2c(F)c(F)c(F)c(F)c2F)nn1)Nc1ccc(S[C@@H]2O[C@H](CCP(=O)(O)O)[C@@H](O)[C@H](O)[C@@H]2O)cc1 [Compound 570]
- relative cellular uptake activity of IgE-Alexa488, omalizumab conjugates of Table 15B (Jurkat cells; 1 hour, FIGS. 18-21): superior activity to conjugates having a α-S-glycoside configuration (552), and to a conjugate having an α-O-glycoside configuration (520 (I-7), m=8)
- relative cellular uptake activity of IgE-Alexa488, omalizumab conjugates of Table 19 (Jurkat cells; FIG. 23, entire dose response range): superior activity to the corresponding conjugates of α-O-glycoside (529) and α-S-glycoside (552)
- Kd (CI-M6PR binding affinity by SPR), relative (CI-M6PR [3]): superior Kd relative to corresponding α-O (529) and α-S-glycosides (552)

— patent US20240335544A1, “M6PR CELL SURFACE RECEPTOR BINDING COMPOUNDS AND CONJUGATES” (LYCIA THERAPEUTICS, INC., priority 2021, published 2024)
